The values below come from US9511074B2, “Methods of treating disorders associated with protein polymerization” (UNIVERSITY OF PITTSBURGH—OF THE COMMONWEALTH SYSTEM OF …, priority 2009, dated 2016).

For this test, the system named is LC3. The experiment in a line: LC3 conversion in the HTO/Z cell line by immunoblot. The class given is cell-based, human. The following applies: with or without lysosomal enzyme inhibitors. As to the method:
For experiments in which proteasomal inhibitors were used, MG132 was used at 30 μM and lactacystin at 10 μM for the last 6 hours of the incubation with CBZ or control. Cells that were incubated with MG132 or lactacystin alone served as control to validate that the proteasome was inhibited. For investigation of LC3 conversion, lysosomal inhibitors (E64D and pepstatin A at 20 μg/ml) were added to the medium for the last 4 hours of the incubation with CBZ or control. […] If the number of separate experiments done in the cell line models is not specifically indicated in the text or figure legend, at least 3 separate experiments were done in each case.
For immunoblot analysis to detect AT, GAPDH or LC3, cells were lysed in 50 mM Tris-HCl, 150 mM NaCl, 1% NP-40, pH 8.0. Protein levels were quantified using the BCA protein assay (Pierce Biotechnology, Rockford, Ill.). 10-50 μg samples were loaded onto 7.5% precast gels. PVDF membranes were blocked in TBS, 0.5% Tween 20 (TBST), 5% milk and then incubated with primary antibody in 5% milk TBST solution. Horseradish peroxidase anti-goat Ig or anti-mouse Ig (Jackson Labs, Bar Harbor, Me.) were used as secondary antibodies in TBST. Blots were visualized with Super Signal West Dura or West Femto from Pierce.
(In general: A western blot detects proteins with antibodies after separation by electrophoresis.)

For the compound `NC(=O)N1c2ccccc2C=Cc2ccccc21` [CBZ, 5H-dibenz [b,f]azepine-5-carboxamide], the “LC3-II to LC3-I ratio” value was “increased in a dose-dependent manner”.
